Measured values reported in patent EP4741386A1 (Jiangsu Yahong Meditech Co., Ltd., priority 2023, dated 2025).

Legend:
MDA-MB-436 = assay: CTG experiment for cell viability (CellTiter-Glo, 96-well plate, 7 days); assay type: cell-based; details: Homo sapiens, MDA-MB-436, 168 h, MDA-MB-436 cells, 7 days culture with compound
Summary of the method: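 MDA-MB-436 cells in DMEM were plated in 96-well format, treated with compounds, and cultured 7 days at 37°C. After removing the medium, cells were given PBS plus CellTiter-Glo reagent, incubated 10 min at room temperature, and luminescence was read. Curves were fitted as for the enzyme assay.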

[1] = molecular target: T1, Recombinant human His6-USP1/His6-UAF1 complex protein (Homo sapiens, UniProt O94782); assay: In vitro inhibitory activity against USP1 (Ubiquitin Rhodamine 110 fluorescence detection, 384-well plate); assay type: biochemical; details: Ub-Rho substrate, 1 hour pre-incubation, read after 30 minutes
T1 construct: His6; purchased R&D E-568-050
T1 sequence (O94782 whole entry): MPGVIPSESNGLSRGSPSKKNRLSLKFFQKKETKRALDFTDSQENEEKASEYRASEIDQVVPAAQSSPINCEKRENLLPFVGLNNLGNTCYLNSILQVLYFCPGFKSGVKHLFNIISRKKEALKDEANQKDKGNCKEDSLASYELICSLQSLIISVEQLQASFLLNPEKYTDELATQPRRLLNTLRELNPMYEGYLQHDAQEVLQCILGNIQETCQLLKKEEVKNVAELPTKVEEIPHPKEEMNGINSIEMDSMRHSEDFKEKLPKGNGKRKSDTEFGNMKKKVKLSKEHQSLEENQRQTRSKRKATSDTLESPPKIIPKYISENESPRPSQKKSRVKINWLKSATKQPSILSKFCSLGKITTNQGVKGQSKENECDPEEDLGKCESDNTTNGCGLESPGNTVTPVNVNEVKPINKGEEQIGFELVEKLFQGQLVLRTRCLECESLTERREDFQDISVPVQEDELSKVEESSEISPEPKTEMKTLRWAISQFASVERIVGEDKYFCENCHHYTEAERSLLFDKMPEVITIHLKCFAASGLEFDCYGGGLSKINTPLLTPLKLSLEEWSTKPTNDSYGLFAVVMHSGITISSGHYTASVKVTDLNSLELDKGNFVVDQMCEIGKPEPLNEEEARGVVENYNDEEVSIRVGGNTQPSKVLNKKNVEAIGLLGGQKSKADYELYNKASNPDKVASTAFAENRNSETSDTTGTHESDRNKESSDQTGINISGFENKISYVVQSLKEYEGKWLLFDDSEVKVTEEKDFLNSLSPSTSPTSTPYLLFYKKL
T1 sequence (Q8TAF3 whole entry partner): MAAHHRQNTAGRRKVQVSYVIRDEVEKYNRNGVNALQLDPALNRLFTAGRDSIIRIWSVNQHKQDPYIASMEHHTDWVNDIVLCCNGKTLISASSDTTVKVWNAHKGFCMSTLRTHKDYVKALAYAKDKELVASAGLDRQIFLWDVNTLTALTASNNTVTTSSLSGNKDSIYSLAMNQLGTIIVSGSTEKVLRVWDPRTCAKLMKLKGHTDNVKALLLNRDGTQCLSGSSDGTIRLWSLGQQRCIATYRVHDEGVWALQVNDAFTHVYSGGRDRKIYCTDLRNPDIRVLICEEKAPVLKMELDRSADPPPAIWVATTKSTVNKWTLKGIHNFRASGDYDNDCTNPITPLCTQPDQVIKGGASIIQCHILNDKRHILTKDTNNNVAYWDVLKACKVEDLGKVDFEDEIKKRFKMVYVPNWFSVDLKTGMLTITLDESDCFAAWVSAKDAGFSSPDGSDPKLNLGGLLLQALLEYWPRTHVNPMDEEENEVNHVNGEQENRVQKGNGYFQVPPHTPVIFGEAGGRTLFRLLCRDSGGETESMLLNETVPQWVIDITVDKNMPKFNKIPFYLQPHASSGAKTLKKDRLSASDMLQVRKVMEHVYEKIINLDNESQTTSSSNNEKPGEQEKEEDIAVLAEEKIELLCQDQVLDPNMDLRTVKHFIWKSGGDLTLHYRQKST
Summary of the method: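 Fluorescence assay measuring inhibition of recombinant human His6-USP1/His6-UAF1 complex with Ubiquitin-Rhodamine 110 substrate. Compounds held as 50 mM stocks in 100% DMSO and dispensed by acoustic transfer into modified Tris assay buffer.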

IC50 (MDA-MB-436) [nM]	IC50 [1] [nM]	SMILES
3.5	1.5	COc1cnc(-c2c(OC)ncnc2C2CC2)nc1N(C)Cc1ccc(-c2nc(C(F)(F)F)cn2C(C)C)cc1 [Example 93, 4'-Cyclopropyl-N-(4-(1-isopropyl-4-(trifluoromethyl)-1H-imidazol-2-yl)benzyl)-5,6'-dimethoxy-N-methyl-[2,5'-bipyrimidin]-4-amine]
275	6.5	COc1cnc(-c2c(OC)ncnc2C2CC2)nc1NCc1ccc(-c2ccccn2)cc1 [Example 94, 4'-Cyclopropyl-5,6'-dimethoxy-N-(4-(pyridin-2-yl)benzyl)-[2,5'-bipyrimidin]-4-amine]
75.1	8.4	COc1cnc(-c2c(OC)ncnc2C2CC2)nc1NCC1CCN(c2nc(C(F)(F)F)cn2C)CC1 [Example 95, 4'-Cyclopropyl-5,6'-dimethoxy-N-((1-(1-methyl-4-(trifluoromethyl)-1H-imidazol-2-yl)piperidin-4-yl)methyl)-[2,5'-bipyrimidin]-4-amine]
12	4.8	COc1cnc(-c2c(OC)ncnc2C2CC2)nc1NCc1ccc(-c2nc(C(F)(F)F)cn2C)cc1 [Example 96, 4'-Cyclopropyl-5,6'-dimethoxy-N-(4-(1-methyl-4-(trifluoromethyl)-1H-imidazol-2-yl)benzyl)-[2,5'-bipyrimidin]-4-amine]
694	144	COc1cnc(-c2c(OC)ncnc2C2CC2)nc1NCc1ccc(OCc2ccccn2)cc1 [Example 98, 4'-Cyclopropyl-5,6'-dimethoxy-N-(4-(pyridin-2-ylmethoxy)benzyl)-[2,5'-bipyrimidin]-4-amine]
445	15.1	CCOCCOc1ccc(CNc2nc(-c3c(OC)ncnc3C3CC3)ncc2OC)cc1 [Example 99, 4'-Cyclopropyl-N-(4-(2-ethoxyethoxy)benzyl)-5,6'-dimethoxy-[2,5'-bipyrimidin]-4-amine]
27.8	4.1	COc1cc(-c2nc(C(F)(F)F)cn2C)ccc1CNc1nc(-c2c(OC)ncnc2C2CC2)ncc1OC [Example 100, 4'-Cyclopropyl-5,6'-dimethoxy-N-(2-methoxy-4-(1-methyl-4-(trifluoromethyl)-1H-imidazol-2-yl)benzyl)-[2,5'-bipyrimidin]-4-amine]
99.1	15	COc1cc(CNc2nc(-c3c(OC)ncnc3C3CC3)ncc2OC)ccc1-c1nc(C(F)(F)F)cn1C [Example 101, 4'-Cyclopropyl-5,6'-dimethoxy-N-(3-methoxy-4-(1-methyl-4-(trifluoromethyl)-1H-imidazol-2-yl)benzyl)-[2,5'-bipyrimidin]-4-amine]
15.8	4.4	COc1cc(-n2nc(C(F)(F)F)cc2C)ccc1CNc1nc(-c2c(OC)ncnc2C2CC2)ncc1OC [Example 102, 4'-Cyclopropyl-5,6'-dimethoxy-N-(2-methoxy-4-(5-methyl-3-(trifluoromethyl)-1H-pyrazol-1-yl)benzyl)-[2,5'-bipyrimidin]-4-amine]
141	10	COc1cc(CNc2nc(-c3c(OC)ncnc3C3CC3)ncc2OC)ccc1-n1nc(C(F)(F)F)cc1C [Example 103, 4'-Cyclopropyl-5,6'-dimethoxy-N-(3-methoxy-4-(5-methyl-3-(trifluoromethyl)-1H-pyrazol-1-yl)benzyl)-[2,5'-bipyrimidin]-4-amine]
13.7	8.8	COc1cnc(-c2c(OC)ncnc2C2CC2)nc1NCC12CCC(c3nc(C(F)(F)F)cn3C)(CC1)CC2 [Example 104, 4'-Cyclopropyl-5,6'-dimethoxy-N-((4-(1-methyl-4-(trifluoromethyl)-1H-imidazol-2-yl)bicyclo[2.2.2]octan-1-yl)methyl)-[2,5'-bipyrimidin]-4-amine]
124	60	COc1cnc(-c2c(OC)ncnc2C2CC2)nc1NCc1ccc(-c2nc(C)cn2C(F)F)cc1 [Example 105, 4'-Cyclopropyl-N-(4-(1-(difluoromethyl)-4-methyl-1H-imidazol-2-yl)benzyl)-5,6'-dimethoxy-[2,5'-bipyrimidin]-4-amine]
4.7	2.9	COc1cnc(-c2c(OC)ncnc2C2CC2)nc1NCc1ccc(-c2nc(C(F)(F)F)cn2C(C)C)cc1 [Example 106, 4'-Cyclopropyl-N-(4-(1-isopropyl-4-(trifluoromethyl)-1H-imidazol-2-yl)benzyl)-5,6'-dimethoxy-[2,5'-bipyrimidin]-4-amine]
17.5	16	COc1cnc(-c2c(OC)ncnc2C2CC2)nc1NCc1ccc(-c2nc(C(F)(F)F)cn2CF)cc1 [Example 107, 4'-Cyclopropyl-N-(4-(1-(fluoromethyl)-4-(trifluoromethyl)-1H-imidazol-2-yl)benzyl)-5,6'-dimethoxy-[2,5'-bipyrimidin]-4-amine]
353	19.7	COc1ncnc(C2CC2)c1-c1ncc(OC(C)C)c(N(C)CC2CCN(c3nc(C(F)(F)F)cn3C)CC2)n1 [Example 108, 4'-Cyclopropyl-5-isopropoxy-6'-methoxy-N-methyl-N-((1-(1-methyl-4-(trifluoromethyl)-1H-imidazol-2-yl)piperidin-4-yl)methyl)-[2,5'-bipyrimidin]-4-amine]
48.3	5.3	COc1ncnc(C2CC2)c1-c1ncc(OC(C)C)c(N(C)Cc2ccc(-c3nc(C(F)(F)F)cn3C)cc2)n1 [Example 109, 4'-Cyclopropyl-5-isopropoxy-6'-methoxy-N-methyl-N-(4-(1-methyl-4-(trifluoromethyl)-1H-imidazol-2-yl)benzyl)-[2,5'-bipyrimidin]-4-amine]
354	28.6	COc1ncnc(C2CC2)c1-c1ncc(OC(C)C)c(NCC2CCN(c3nc(C(F)(F)F)cn3C)CC2)n1 [Example 110, 4'-Cyclopropyl-5-isopropoxy-6'-methoxy-N-((1-(1-methyl-4-(trifluoromethyl)-1H-imidazol-2-yl)piperidin-4-yl)methyl)-[2,5'-bipyrimidin]-4-amine]
88.1	10.4	COc1ncnc(C2CC2)c1-c1ncc(OC(C)C)c(NCc2ccc(-c3nc(C(F)(F)F)cn3C)cc2)n1 [Example 111, 4'-Cyclopropyl-5-isopropoxy-6'-methoxy-N-(4-(1-methyl-4-(trifluoromethyl)-1H-imidazol-2-yl)benzyl)-[2,5'-bipyrimidin]-4-amine]
87.2	23	COc1ncnc(C2CC2)c1-c1nc(NCc2ccc(-c3nc(C(F)(F)F)cn3C)s2)c2occc2n1 [Example 113, 2-(4-Cyclopropyl-6-methoxypyrimidin-5-yl)-N-((5-(1-methyl-4-(trifluoromethyl)-1H-imidazol-2-yl)thiophen-2-yl)methyl)furo[3,2-d]pyrimidin-4-amine]
536	19.4	COc1ncnc(C2CC2)c1-c1nc(NCc2ccc(OCc3ccccn3)cc2)c2occc2n1 [Example 116, 2-(4-Cyclopropyl-6-methoxypyrimidin-5-yl)-N-(4-(pyridin-2-ylmethoxy)benzyl)furo[3,2-d]pyrimidin-4-amine]
278	13.8	CCOCCOc1ccc(CNc2nc(-c3c(OC)ncnc3C3CC3)nc3ccoc23)cc1 [Example 117, 2-(4-Cyclopropyl-6-methoxypyrimidin-5-yl)-N-(4-(2-ethoxyethoxy)benzyl)furo[3,2-d]pyrimidin-4-amine]
